This note sets out measurements from patent US5104869A, “Renin inhibitors” (American Cyanamid Company, priority 1990, dated 1992).

Molecules are shown by their SMILES.

In this assay the target is T1, human kidney renin (Homo sapiens, UniProt P00797).
T1 construct: Human renin was prepared from human kidney; from tissue; host or cells: human kidney
T1 sequence (P00797 67-406): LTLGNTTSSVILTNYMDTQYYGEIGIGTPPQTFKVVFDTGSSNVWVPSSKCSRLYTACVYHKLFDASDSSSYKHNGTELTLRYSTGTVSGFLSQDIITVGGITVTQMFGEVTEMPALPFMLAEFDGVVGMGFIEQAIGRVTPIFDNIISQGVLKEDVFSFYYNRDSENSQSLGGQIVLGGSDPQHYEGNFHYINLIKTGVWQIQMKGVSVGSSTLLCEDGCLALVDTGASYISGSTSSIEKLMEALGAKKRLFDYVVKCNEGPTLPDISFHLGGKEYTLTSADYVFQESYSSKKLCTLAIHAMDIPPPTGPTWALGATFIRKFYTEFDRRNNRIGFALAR
Put plainly: Radioimmunoassay Screen for Renin Inhibitors (in vitro angiotensin I generation, quantitated by radioimmunoassay). The conditions noted are these: purified human plasma angiotensinogen, pH 6.0, one hour at 37° C., read-out: Renin Inhibiton IC50. The assay is classed as biochemical. As to the method: The in vitro method for the screening of anti-renin compounds involves, first, angiotensin I generation, and second, the quantitation of the angiotensin I produced by radioimmunoassay.
The incubation medium consisted of 20 μl of purified human plasma angiotensinogen (1); 10 μl of human kidney renin (2); 5 μl of phenylmethylsulfonyl fluoride; 10 μl of disodium EDTA (10 mM); 10 μl of antirenin compound (5×10^-3, 5×10^-4, 5×10^-5) in dimethylformamide, or ethanol and a suitable amount of maleate buffer (77 mM, pH 6.0) to make a final volume of 500 μl. The reaction mixture was incubated for one hour at 37° C. and the enzymatic reaction was stopped by placing the tube in ice-cold water. The angiotensin I generated during the incubation was measured by a radioimmunoassay plasma renin activity kit (Clinical Assays, Inc.).
The incubation medium consisted of either 100 μl aliquots of the above reaction mixture or a standard amount of angiotensin I; 1000 μl of phosphate buffer (100 mM, pH 7.6) and 100 μl of (^125 I)angiotensinin a gamma-coat, tube. After three hours of incubation at room temperature, the tubes were decanted, and the radioactivity of each tube was determined in a gamma counter. Duplicate determinations were performed for each incubation. The results were expressed in ng of angiotensin I generated per ml of generation medium per hour of incubation (ng/AI/ml/hr).
(1) The human plasma angiotensinogen derived from the blood of a person receiving oral contraceptive pills was purified by chromatography on a pepstatinaminohexyl-agarose column.
(2) Human renin was prepared from human kidney.

A word on the IC50: it is the point on the concentration scale where inhibition reaches its midpoint.

As to `O=C(N[C@@H](Cc1cnc[nH]1)C(=O)N[C@@H](CC1CCCCC1)[C@@H](O)c1nccs1)[C@@H](CC(=O)N1CCOCC1)Cc1cccc2ccccc12`, the IC50 turned out to be 35 nM.

On to `CC(C)C[C@H](NC(=O)[C@@H](CC(=O)O)Cc1cccc2ccccc12)C(=O)N[C@@H](CC1CCCCC1)[C@@H](O)c1ccccn1`, for which the IC50 is 3800 nM.

For `CC(C)C[C@H](NC(=O)[C@@H](CC(=O)N1CCOCC1)Cc1ccccc1)C(=O)N[C@@H](CC1CCCCC1)[C@@H](O)c1nccs1`, the IC50 stood at 80000 nM.

For `CC(C)C[C@H](NC(=O)[C@H](Cc1ccccc1)OC(=O)N1CCC2(CC1)OCCO2)C(=O)N[C@@H](CC1CCCCC1)[C@@H](O)c1ccco1`, the IC50 worked out at 210 nM.

Turning to `CC(C)C[C@H](NC(=O)[C@@H](CC(=O)OC(C)(C)C)Cc1cccc2ccccc12)C(=O)N[C@@H](CC(C)C)[C@@H](O)c1nccs1`, the IC50 turned out to be 550 nM.

With `CC(C)C[C@H](NC(=O)[C@@H](CC(=O)NC(C)(C)C)Cc1ccccc1)C(=O)N[C@@H](CC(C)C)[C@@H](O)c1nccs1`, the IC50 came out at 67000 nM.

Turning to `CC(C)C[C@H](NC(=O)[C@@H](CC(=O)NCc1ccccn1)Cc1cccc2ccccc12)C(=O)N[C@@H](CC(C)C)[C@@H](O)c1nccs1`, the IC50 was 120 nM.

For `CC(C)C[C@H](NC(=O)[C@@H](CC(=O)N1CCOCC1)Cc1cccc2ccccc12)C(=O)N[C@@H](CC1CCCCC1)[C@@H](O)c1ccco1`, the IC50 came out at 8.8 nM.

With `COC(CNC(=O)C[C@@H](Cc1cccc2ccccc12)C(=O)N[C@@H](CC(C)C)C(=O)N[C@@H](CC(C)C)[C@@H](O)c1nccs1)OC`, the IC50 turned out to be 410 nM.

For the molecule `CC(C)C[C@H](NC(=O)[C@H](Cc1ccccc1)OC(=O)N1CCNC(=O)C1)C(=O)N[C@@H](CC1CCCCC1)[C@@H](O)c1ccco1`, the IC50 was 0.19 nM.

Consider `CC(C)C[C@H](NC(=O)[C@@H](CC(=O)NCCCCn1ccnc1)Cc1cccc2ccccc12)C(=O)N[C@@H](CC(C)C)[C@@H](O)c1nccs1`, for which the IC50 is 93 nM.

Regarding `CC(C)C[C@H](NC(=O)[C@H](Cc1ccccc1)OC(=O)N1CCOCC1)C(=O)N[C@@H](CC1CCCCC1)[C@@H](O)c1ccccn1`, the IC50 turned out to be 770 nM.

`CC(C)C[C@H](NC(=O)[C@@H](CC(=O)NCCc1ccccc1)Cc1cccc2ccccc12)C(=O)N[C@@H](CC(C)C)[C@@H](O)c1nccs1`: the IC50 was 730 nM.

As for `CC(C)C[C@H](NC(=O)[C@@H](CC(=O)NCCc1ccccn1)Cc1cccc2ccccc12)C(=O)N[C@@H](CC(C)C)[C@@H](O)c1nccs1`, the IC50 came out at 110 nM.

As to `CC(C)C[C@H](NC(=O)[C@@H](CC(=O)N1CCN(C)CC1)Cc1cccc2ccccc12)C(=O)N[C@@H](CC(C)C)[C@@H](O)c1nccs1`, the IC50 was 440 nM.

Take `CC(C)C[C@H](NC(=O)[C@@H](CC(=O)NCCOc1ccccn1)Cc1cccc2ccccc12)C(=O)N[C@@H](CC(C)C)[C@@H](O)c1nccs1`: the IC50 stood at 44 nM.

On to `CC(C)C[C@H](NC(=O)[C@H](Cc1ccccc1)OC(=O)N1CCC(=O)CC1)C(=O)N[C@@H](CC1CCCCC1)[C@@H](O)c1ccco1`, for which the IC50 amounted to 58 nM.

As for `CC(C)C[C@H](NC(=O)[C@@H](CC(=O)NCCN1CCCC1)Cc1cccc2ccccc12)C(=O)N[C@@H](CC(C)C)[C@@H](O)c1nccs1`, the IC50 is 740 nM.

Take `CC(C)C[C@H](NC(=O)[C@H](Cc1ccccc1)OC(=O)N1CCOCC1)C(=O)N[C@@H](CC1CCCCC1)[C@@H](O)c1cccs1`: the IC50 is 270 nM.

As to `CC(C)C[C@H](NC(=O)[C@@H](CC(=O)O)Cc1cccc2ccccc12)C(=O)N[C@@H](CC(C)C)[C@@H](O)c1nccs1`, the IC50 was 550 nM.

As for `CC(C)C[C@H](NC(=O)[C@@H](CC(=O)NCc1cccnc1)Cc1cccc2ccccc12)C(=O)N[C@@H](CC(C)C)[C@@H](O)c1nccs1`, the IC50 was determined as 170 nM.

For the molecule `CC(C)C[C@H](NC(=O)[C@H](Cc1ccccc1)OC(=O)N1CCOCC1)C(=O)N[C@@H](CC1CCCCC1)[C@@H](O)c1ccco1`, the IC50 was 100 nM.

For the molecule `O=C(N[C@@H](Cc1cnc[nH]1)C(=O)N[C@@H](CC1CCCCC1)[C@@H](O)c1ccccn1)[C@@H](CC(=O)N1CCOCC1)Cc1cccc2ccccc12`, the IC50 turned out to be 260 nM.

Take `CC(C)C[C@H](NC(=O)[C@H](Cc1ccccc1)OC(=O)N1CCOCC1)C(=O)N[C@@H](CC1CCCCC1)[C@@H](O)c1nccs1`: the IC50 was 11 nM.

Take `CC(C)C[C@H](NC(=O)[C@H](CC1CCCCC1)OC(=O)N1CCOCC1)C(=O)N[C@@H](CC1CCCCC1)[C@@H](O)c1ccco1`: the IC50 was 180 nM.

Take `CC(C)C[C@H](NC(=O)[C@@H](CC(=O)NCCCn1ccnc1)Cc1cccc2ccccc12)C(=O)N[C@@H](CC(C)C)[C@@H](O)c1nccs1`: the IC50 turned out to be 210 nM.

As to `O=C(N[C@@H](Cc1cnc[nH]1)C(=O)N[C@@H](CC1CCCCC1)[C@@H](O)c1ccco1)[C@@H](CC(=O)N1CCOCC1)Cc1cccc2ccccc12`, the IC50 is 4.9 nM.

Take `Cn1cccc1CCNC(=O)C[C@@H](Cc1cccc2ccccc12)C(=O)N[C@@H](Cc1cnc[nH]1)C(=O)N[C@@H](CC1CCCCC1)[C@@H](O)c1nccs1`: the IC50 turned out to be 340 nM.

Turning to `CC(C)C[C@H](NC(=O)[C@@H](CC(=O)NCCCN1CCCC1=O)Cc1ccccc1)C(=O)N[C@@H](CC1CCCCC1)[C@@H](O)c1ccccn1`, the IC50 stood at 130 nM.

Consider `COc1cc(C[C@H](CC(=O)N2CCOCC2)C(=O)N[C@@H](Cc2c[nH]cn2)C(=O)N[C@@H](CC(C)C)[C@@H](O)c2nccs2)cc(OC)c1OC`, for which the IC50 turned out to be 2800 nM.

Regarding `CC(C)C[C@H](NC(=O)[C@@H](CC(=O)NCCc1cccn1C)Cc1cccc2ccccc12)C(=O)N[C@@H](CC(C)C)[C@@H](O)c1nccs1`, the IC50 came to 33 nM.

On to `COCCNC(=O)O[C@@H](Cc1ccccc1)C(=O)N[C@@H](CC(C)C)C(=O)N[C@@H](CC1CCCCC1)[C@@H](O)c1ccco1`, for which the IC50 was 1700 nM.

`CC(C)C[C@H](NC(=O)[C@@H](CC(=O)OC(C)(C)C)Cc1ccccc1)C(=O)N[C@@H](CC1CCCCC1)[C@@H](O)c1nccs1`: the IC50 was determined as 160 nM.

Regarding `CC(C)C[C@H](NC(=O)[C@H](Cc1ccccc1)OC(=O)N1CCSCC1)C(=O)N[C@@H](CC1CCCCC1)[C@@H](O)c1ccccn1`, the IC50 came out at 840 nM.

With `O=C(N[C@@H](Cc1c[nH]cn1)C(=O)N[C@@H](CC1CCCCC1)[C@@H](O)c1nccs1)[C@@H](CC(=O)N1CCOCC1)Cc1ccccc1`, the IC50 was 15000 nM.

As to `CC(C)C[C@H](NC(=O)[C@@H](CC(=O)NCCCN1CCOCC1)Cc1cccc2ccccc12)C(=O)N[C@@H](CC(C)C)[C@@H](O)c1nccs1`, the IC50 was 440 nM.

Take `CC(C)C[C@H](NC(=O)[C@@H](CC(=O)N1CCOCC1)Cc1cccc2ccccc12)C(=O)N[C@@H](CC(C)C)[C@@H](O)c1nccs1`: the IC50 is 250 nM.

For the molecule `CC(C)C[C@H](NC(=O)[C@@H](CC(=O)N1CCOCC1)Cc1ccccc1)C(=O)N[C@@H](CC(C)C)[C@@H](O)c1nccs1`, the IC50 was determined as 42000 nM.

As to `CC(C)(C)OC(=O)C[C@@H](Cc1cccc2ccccc12)C(=O)N[C@@H](Cc1cnc[nH]1)C(=O)N[C@@H](CC1CCCCC1)[C@@H](O)c1ccccn1`, the IC50 is 4800 nM.

For the molecule `CC(C)C[C@H](NC(=O)[C@H](Cc1ccccc1)OC(=O)N1CCSCC1)C(=O)N[C@@H](CC1CCCCC1)[C@@H](O)c1ccco1`, the IC50 turned out to be 47 nM.

Turning to `O=C(N[C@@H](Cc1cnc[nH]1)C(=O)N[C@@H](CC1CCCCC1)[C@@H](O)c1cccs1)[C@@H](CC(=O)N1CCOCC1)Cc1cccc2ccccc12`, the IC50 was found to be 270 nM.
